What all share (format): functional
Test [1] relates to Radical scavenging activity. Put plainly: DPPH radical scavenging activity at 0.0625 g/L. (DPPH is a stable violet radical that fades when it is reduced.)
The test system of test [2] is Radical scavenging activity. Put plainly: DPPH radical scavenging activity at 0.0156 g/L.
Test [3] relates to Radical scavenging activity. Put plainly: DPPH radical scavenging activity at 0.250 g/L.
In test [4] the test system is Radical scavenging activity. Put plainly: DPPH radical scavenging activity at 0.125 g/L.
Test [5] concerns Radical scavenging activity. Put plainly: DPPH radical scavenging activity at 0.0312 g/L.

For `COc1ccc(Nc2c(C(=O)O)sc3ccccc23)c(OC)c1`, the Activity amounted to 44.7% in test [1]; 8.9% in test [2]; 84% in test [3]; 63% in test [4]; 30.7% in test [5].
Turning to `COc1ccc(Nc2cc3sc(C)c(C)c3cc2C)cc1OC`, the Activity is 74.6% in test [1]; 49% in test [2]; 75.4% in test [3]; 75% in test [4]; 65.3% in test [5].
For the compound `CCOC(=O)c1sc2ccccc2c1Nc1ccc(OC)cc1`, the Activity in test [1] was found to be 0.4%; in test [2] it was 0%; in test [3], 0.78%; in test [4], 0.74%; in test [5] it was 0%.
With `COc1ccc(O)c(C(C)(C)C)c1.COc1ccc(O)cc1C(C)(C)C`, the Activity amounted to 75.7% in test [1]; 41.2% in test [2]; 84% in test [3]; 83% in test [4]; 63% in test [5].
For `Cc1cc2c(C)c(C)sc2cc1Nc1ccccc1F`, in that order: 0.52%, 0%, 1.21%, 0.54% and 0%.
As for `COc1ccc(Nc2cc3sc(C)c(C)c3cc2C)cc1`, the Activity in test [1] amounted to 76.6%; in test [2], 38.3%; in test [3], 77%; in test [4], 76.8%; in test [5], 68.5%.
For `CCOC(=O)c1sc2ccccc2c1Nc1ccc(OC)cc1OC`, the Activity in test [1] came out at 51.1%; in test [2] it was 20.8%; in test [3], 74.8%; in test [4] it was 64.7%; in test [5] it was 34.8%.
In the case of `CCOC(=O)c1sc2ccccc2c1Nc1ccc(F)cc1`, the Activity turned out to be 0.72% in test [1]; 0% in test [2]; 0.9% in test [3]; 0.86% in test [4]; 0.54% in test [5].
For `Fc1ccc(Nc2csc3ccccc23)cc1`, in that order: 67.7%, 26.8%, 85%, 83.4% and 44.7%.
The corresponding values for `Cc1cc2c(C)c(C)sc2cc1Nc1ccc(F)cc1` are 0%, 0%, 2.8%, 0.4% and 0%.
With `Cc1cc(C(C)(C)C)c(O)c(C(C)(C)C)c1`, the Activity in test [1] stood at 60%; in test [2], 28%; in test [3], 83%; in test [4], 82.3%; in test [5], 38.3%.

For the origin of these results see ChEMBL document CHEMBL1139035, “Evaluation of the antioxidant properties of diarylamines in the benzo[b]thiophene series by free radical scavenging activity and reducing power” (Bioorg Med Chem Lett, 2006).
